Results on twelve compounds are retold here after patent US12187684B2, “Benzimidazole derivatives as modulators of retinoid-related orphan receptor gamma (RORγ) and pharmaceutical use thereof” (Jiangsu Hengrui Medicine Co., Ltd., priority 2018, dated 2025).

In this experiment the target is T1, RORγ LBD-GST tagged (Homo sapiens, UniProt P51449).
T1 construct: RORγ LBD-GST tagged (Cat No. RORC-114H, Creative Biomart); purchased Creative Biomart RORC-114H
T1 sequence (P51449 269-508 limits assumed): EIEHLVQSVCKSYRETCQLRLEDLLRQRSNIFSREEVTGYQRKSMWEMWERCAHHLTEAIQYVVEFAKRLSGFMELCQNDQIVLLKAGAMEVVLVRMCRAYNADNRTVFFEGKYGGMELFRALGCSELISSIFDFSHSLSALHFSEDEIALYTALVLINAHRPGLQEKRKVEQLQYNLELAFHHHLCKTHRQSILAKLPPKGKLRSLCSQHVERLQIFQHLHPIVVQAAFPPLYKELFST
Put plainly: LanthaScreen TR-FRET RORγ coactivator assay. In kind it is biochemical. Particulars: Fluorescein-D22 coactivator peptide, 1 hour room temperature. In outline:
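GST-tagged RORγ LBD (25 ng/reaction) was incubated in coregulator buffer D with 5 mM DTT and compound (top 3 μM, 7-fold steps, 7 doses), then with a mix containing 0.6 μM fluorescein-D22 peptide and 8 nM Tb anti-GST antibody. After 1 h at room temperature in the dark, 520/495 nm TR-FRET was read. IC50 came from log concentration versus percent inhibition.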
As usually defined, the IC50 is the concentration at which inhibition is half-maximal. Read a high IC50 as a need for much substance. In the case of `CCS(=O)(=O)c1ccc(C(NC(=O)COC)c2nc3c(Cl)c(-c4ccccc4OC(F)F)c(Cl)cc3[nH]2)cc1` (stereo not drawn) [Example 41, N-((4,6-dichloro-5-(2-(difluoromethoxy)phenyl)-1H-benzo[d]imidazol-2-yl)(4-(ethylsulfonyl)phenyl)methyl)-2-methoxyacetamide], the midpoint of inhibition, the IC50, lay at 0.683 µM.
To `CC(C)S(=O)(=O)c1ccc(C(O)c2nc3c(Cl)c(-c4ccccc4OC(F)(F)F)c(Cl)cc3[nH]2)cc1` (stereo not drawn) [Example 106, (4-((iso-propyl)sulfonyl)phenyl)(4,6-dichloro-5-(2-(trifluoromethoxy)phenyl)-1H-benzo[d]imidazol-2-yl)methanol] belongs 0.003 µM; to `CCS(=O)(=O)c1ccc(C(CO)c2nc3c(Cl)c(-c4ccsc4)c(Cl)cc3[nH]2)cc1` (stereo not drawn) [Example 25, 2-(4,6-dichloro-5-(thiophen-3-yl)-1H-benzo[d]imidazol-2-yl)-2-(4-(ethylsulfonyl)phenyl)ethanol], 0.789 µM.
For the compound `NC(=O)CC(c1ccc(S(=O)(=O)CC2CC2)cc1)c1nc2cc(-c3ccccc3OC(F)F)c(Cl)cc2[nH]1` (single isomer, unassigned) [3-(6-chloro-5-(2-(difluoromethoxy)phenyl)-1H-benzo[d]imidazol-2-yl)-3-(4-((cyclopropylmethyl)sulfonyl)phenyl)propanamide], it took 0.21 µM to reach half-maximal inhibition (IC50). Compared with the last compound, the IC50 is about 3.8-fold lower.
Under `CCS(=O)(=O)c1ccc(C(CC(N)=O)c2nc3c(Cl)c(N4CCC(F)(F)CC4)c(Cl)cc3[nH]2)cc1` (single isomer, unassigned) [3-(4,6-dichloro-5-(4,4-difluoropiperidin-1-yl)-1H-benzo[d]imidazol-2-yl)-3-(4-(ethylsulfonyl)phenyl)propanamide] stands 0.057 µM.
The compound `COCCS(=O)(=O)c1ccc(C(O)c2nc3c(Cl)c(-c4ccccc4OC(F)(F)F)c(Cl)cc3[nH]2)cc1` (stereo not drawn) [Example 55, (4,6-dichloro-5-(2-(trifluoromethoxy)phenyl)-1H-benzo[d]imidazol-2-yl)(4-((2-methoxyethyl)sulfonyl)phenyl)methanol] showed an IC50 of 0.194 µM.
Under `CCS(=O)(=O)c1ccc(C(O)c2nc3c(F)c(-c4ccccc4OC)c(F)cc3[nH]2)cc1` (stereo not drawn) [Example 113, (4,6-difluoro-5-(2-methoxyphenyl)-1H-benzo[d]imidazol-2-yl)(4-(ethylsulfonyl)phenyl)methanol] stands 0.18 µM; under `CCS(=O)(=O)c1ccc(C(NC(C)=O)c2nc3c(Cl)c(-c4ccccc4OC(F)(F)F)c(Cl)cc3[nH]2)cc1` (stereo not drawn) [Example 44, N-((4,6-dichloro-5-(2-(trifluoromethoxy)phenyl)-1H-benzo[d]imidazol-2-yl)(4-(ethylsulfonyl)phenyl)methyl)acetamide], 0.026 µM.
`CCS(=O)(=O)c1ccc(C(CO)c2nc3c(C)c(-c4ccccc4OC)c(C)cc3[nH]2)cc1` (stereo not drawn) [Example 117, 2-(4-(ethylsulfonyl)phenyl)-2-(5-(2-methoxyphenyl)-4,6-dimethyl-1H-benzo[d]imidazol-2-yl)ethanol] showed an IC50 of 0.149 µM.
To `CS(=O)(=O)c1ccc(Cc2nc3c(Cl)c(-c4ccccc4OC(F)(F)F)c(Cl)cc3[nH]2)c(Cl)c1` [Example 101, 4,6-dichloro-2-(2-chloro-4-(methylsulfonyl)benzyl)-5-(2-(trifluoromethoxy)phenyl)-1H-benzo[d]imidazole] belongs 0.082 µM.
To `O=S(=O)(CC1CC1)c1ccc(C(O)c2nc3c(Cl)c(-c4ccccc4C(F)(F)F)c(Cl)cc3[nH]2)cc1` (stereo not drawn) [Example 71, (4-((cyclopropylmethyl)sulfonyl)phenyl)(4,6-dichloro-5-(2-(trifluoromethyl)phenyl)-1H-benzo[d]imidazol-2-yl)methanol] belongs 0.004 µM.
`O=S(=O)(CC1CC1)c1ccc(C(O)c2nc3c(Cl)c(-c4ccccc4OC(F)(F)F)c(Cl)cc3[nH]2)c(F)c1` (stereo not drawn) [Example 82, (4-((cyclopropylmethyl)sulfonyl)-2-fluorophenyl)(4,6-dichloro-5-(2-(trifluoromethoxy)phenyl)-1H-benzo[d]imidazol-2-yl)methanol] showed an IC50 of 0.046 µM.
